Experimental data reported in US20230100838A1 (Revolution Medicines, Inc., priority 2019, published 2023).

Columns and labels:
Type in all cases: binding
[1] = target: T1, GDP-loaded K-Ras (1-169) G12D, C51S, C80L, C118S (Homo sapiens, UniProt P01116, C118S/C51S/C80L/G12D); experiment: K-Ras G12D(GDP) cross-linking assay (conjugate formation, TOF mass spectrometry); conditions: percent covalently modified K-Ras by MS, room temperature, typical compound conc. 2, 10, 25 μM, endpoints 1 and 24 h
T1 construct: GDP-loaded K-Ras (1-169) G12D, C51S, C80L, C118S
Method in brief: (§1)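 5 μM protein (final, from 50 μM) in HEPES/NaCl/MgCl2 buffer pH 7.4 with compound typically at 2, 10 and 25 μM, room temperature, 1 and 24 h endpoints; formic acid quench. Intact-protein LC–TOF MS; percent modification is covalent adduct peak height over total K-Ras peak height.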

[2] = target: T2, GDP-loaded K-Ras (1-169) C51S, C80L, C118S (Homo sapiens, UniProt P01116, C118S/C51S/C80L); experiment: K-Ras WT (GDP) cross-linking assay (conjugate formation, TOF mass spectrometry); conditions: percent covalently modified K-Ras by MS, room temperature, typical compound conc. 2, 10, 25 μM, endpoints 1 and 24 h
T2 construct: GDP-loaded K-Ras (1-169) C51S, C80L, C118S
Method in brief: as §1

K-Ras G12S = K-Ras G12S (Homo sapiens, UniProt P01116, G12S); experiment: K-Ras G12S cross-linking assay (comparable procedure, conjugate formation, TOF mass spectrometry)
Method in brief: as §1

[3] = Table 4, percent covalently modified K-Ras by MS
[4] = Table 5, percent covalently modified K-Ras by MS

| G12D x-linking (%) ([1]; Table 4) | WT x-linking (%) ([2]; Table 4) | G12S x-linking (%) (K-Ras G12S; [3]) | G12D x-linking (%) ([1]; Table 5) | WT x-linking (%) ([2]; Table 5) | G12S x-linking (%) (K-Ras G12S; [4]) | Structure (SMILES) |
| --- | --- | --- | --- | --- | --- | --- |
| + (0 < x ≤ 20) | + (0 < x ≤ 20) | + (0 < x ≤ 10) | – | – | – | CC(=O)N1CC1C(=O)N(C)C1CCN(c2nc(OC[C@@H]3CCCN3C)nc3c2CCN(c2cccc4cccc(C)c24)C3)CC1 (stereo partly drawn) [Example 43, 1-acetyl-N-methyl-N-(1-(7-(8-methylnaphthalen-1-yl)-2-(((S)-1-methylpyrrolidin-2-yl)methoxy)-5,6,7,8-tetrahydropyrido[3,4-d]pyrimidin-4-yl)piperidin-4-yl)aziridine-2-carboxamide] |
| – | – | – | + (0 < x ≤ 20) | + (0 < x ≤ 20) | + (0 < x ≤ 10) | Cc1cccc2cccc(N3CCc4c(nc(OC[C@@H]5CCCN5C)nc4N4CCC(N=C=NCc5cccs5)CC4)C3)c12 [Example 94, N-(1-(7-(8-methylnaphthalen-1-yl)-2-(((S)-1-methylpyrrolidin-2-yl)methoxy)-5,6,7,8-tetrahydropyrido[3,4-d]pyrimidin-4-yl)piperidin-4-yl)-N-(thiophen-2-ylmethyl)methanediimine] |
| – | – | – | +++ (40 < x ≤ 100) | ++ (20 < x ≤ 100) | ++ (10 < x ≤ 100) | COCCN=C=NCC1CCN(c2nc(OC[C@@H]3CCCN3C)nc3c2CCN(c2cccc4cccc(C)c24)C3)CC1 [Example 77, N-(2-methoxyethyl)-N-((1-(7-(8-methylnaphthalen-1-yl)-2-(((S)-1-methylpyrrolidin-2-yl)methoxy)-5,6,7,8-tetrahydropyrido[3,4-d]pyrimidin-4-yl)piperidin-4-yl)methyl)methanediimine] |
| – | – | – | +++ (40 < x ≤ 100) | ++ (20 < x ≤ 100) | ++ (10 < x ≤ 100) | Cc1cccc2cccc(N3CCc4c(nc(OC[C@@H]5CCCN5C)nc4N4CCC(N=C=NC5CCN(C)CC5)CC4)C3)c12 [Example 83, N-(1-(7-(8-methylnaphthalen-1-yl)-2-(((S)-1-methylpyrrolidin-2-yl)methoxy)-5,6,7,8-tetrahydropyrido[3,4-d]pyrimidin-4-yl)piperidin-4-yl)-N-(1-methylpiperidin-4-yl)methanediimine] |
| – | – | – | +++ (40 < x ≤ 100) | ++ (20 < x ≤ 100) | ++ (10 < x ≤ 100) | COCCN=C=N[C@H]1CC[C@@H](N(C)c2nc(OC[C@@H]3CCCN3C)nc3c2CCN(c2cccc4cccc(C)c24)C3)CC1 [Example 79, N-((1s,4R)-4-((((2-methoxyethyl)imino)methylene)amino)cyclohexyl)-N-methyl-7-(8-methylnaphthalen-1-yl)-2-(((S)-1-methylpyrrolidin-2-yl)methoxy)-5,6,7,8-tetrahydropyrido[3,4-d]pyrimidin-4-amine] |
| – | – | – | +++ (40 < x ≤ 100) | ++ (20 < x ≤ 100) | ++ (10 < x ≤ 100) | COCCN=C=N[C@@H]1CCN(c2nc(OC[C@@H]3CCCN3C)nc3c2CCN(c2cccc4cccc(C)c24)C3)C1 [Example 73, N-(2-methoxyethyl)-N—((R)-1-(7-(8-methylnaphthalen-1-yl)-2-(((S)-1-methylpyrrolidin-2-yl)methoxy)-5,6,7,8-tetrahydropyrido[3,4-d]pyrimidin-4-yl)pyrrolidin-3-yl)methanediimine] |
| – | – | – | ++ (20 < x ≤ 40) | + (0 < x ≤ 20) | + (0 < x ≤ 10) | COCCN=C=N[C@H]1CC[C@H](N(C)c2nc(OC[C@@H]3CCCN3C)nc3c2CCN(c2cccc4cccc(C)c24)C3)CC1 [Example 78, N-((1r,4S)-4-((((2-methoxyethyl)imino)methylene)amino)cyclohexyl)-N-methyl-7-(8-methylnaphthalen-1-yl)-2-(((S)-1-methylpyrrolidin-2-yl)methoxy)-5,6,7,8-tetrahydropyrido[3,4-d]pyrimidin-4-amine] |
| +++ (40 < x ≤ 100) | ++ (20 < x ≤ 100) | ++ (10 < x ≤ 100) | – | – | – | CCCN=C=NCCCN(C)c1nc(OC[C@@H]2CCCN2C)nc2c1CCN(c1cccc3cccc(C)c13)C2 [Example 30, N-methyl-7-(8-methylnaphthalen-1-yl)-2-(((S)-1-methylpyrrolidin-2-yl)methoxy)-N-(3-(((propylimino)methylene)amino)propyl)-5,6,7,8-tetrahydropyrido[3,4-d]pyrimidin-4-amine] |

Further lines, the compound ahead of its results:

| Structure (SMILES) | G12D x-linking (%) ([1]; Table 4) | WT x-linking (%) ([2]; Table 4) | G12S x-linking (%) (K-Ras G12S; [3]) | G12D x-linking (%) ([1]; Table 5) | WT x-linking (%) ([2]; Table 5) | G12S x-linking (%) (K-Ras G12S; [4]) |
| --- | --- | --- | --- | --- | --- | --- |
| CC(=O)N1CC1C(=O)N1CCN(c2nc(OC[C@@H]3CCCN3C)nc3c2CCN(c2cccc4cccc(C)c24)C3)CC1 (stereo partly drawn) [Example 47, 1-(2-(4-(7-(8-methylnaphthalen-1-yl)-2-(((S)-1-methylpyrrolidin-2-yl)methoxy)-5,6,7,8-tetrahydropyrido[3,4-d]pyrimidin-4-yl)piperazine-1-carbonyl)aziridin-1-yl)ethan-1-one] | + (0 < x ≤ 20) | + (0 < x ≤ 20) | + (0 < x ≤ 10) | – | – | – |
| Cc1cccc2cccc(N3CCc4c(nc(OC[C@@H]5CCCN5C)nc4N(C)CCN=C=NCc4ccc(Cl)cc4)C3)c12 [Example 28, N-(2-((((4-chlorobenzyl)imino)methylene)amino)ethyl)-N-methyl-7-(8-methylnaphthalen-1-yl)-2-(((S)-1-methylpyrrolidin-2-yl)methoxy)-5,6,7,8-tetrahydropyrido[3,4-d]pyrimidin-4-amine] | ++ (20 < x ≤ 40) | + (0 < x ≤ 20) | ++ (10 < x ≤ 100) | – | – | – |
| Cc1ccnc(C(C)C)c1-n1c(=O)nc(N2CCN(C(=O)[C@H]3CN3)C[C@@H]2C)c2cc(F)c(-c3c(O)cccc3F)nc21 [Example 65, 4-((S)-4-((R)-aziridine-2-carbonyl)-2-methylpiperazin-1-yl)-6-fluoro-7-(2-fluoro-6-hydroxyphenyl)-1-(2-isopropyl-4-methylpyridin-3-yl)pyrido[2,3-d]pyrimidin-2(1H)-one] | – | – | – | + (0 < x ≤ 20) | + (0 < x ≤ 20) | + (0 < x ≤ 10) |
| CN=C=NC1CCN(c2ncnc3c(F)c(-c4ccccc4F)c(Cl)cc23)CC1 [Example 4, N-(1-(6-chloro-8-fluoro-7-(2-fluorophenyl)quinazolin-4-yl)piperidin-4-yl)-N-methylmethanediimine] | + (0 < x ≤ 20) | + (0 < x ≤ 20) | ++ (10 < x ≤ 100) | – | – | – |
| Cc1cccc2cccc(N3CCc4c(nc(OC[C@@H]5CCCN5C)nc4N4CCN(C(=O)[C@H]5CN5)[C@@H](CC#N)C4)C3)c12 [Example 63, 2-((S)-1-((R)-aziridine-2-carbonyl)-4-(7-(8-methylnaphthalen-1-yl)-2-(((S)-1-methylpyrrolidin-2-yl)methoxy)-5,6,7,8-tetrahydropyrido[3,4-d]pyrimidin-4-yl)piperazin-2-yl)acetonitrile] | – | – | – | ++ (20 < x ≤ 40) | + (0 < x ≤ 20) | + (0 < x ≤ 10) |
| Cc1cccc2cccc(N3CCc4c(nc(OC[C@@H]5CCCN5C)nc4N(C)CCN=C=NCc4ccccc4)C3)c12 [Example 27, N-(2-(((benzylimino)methylene)amino)ethyl)-N-methyl-7-(8-methylnaphthalen-1-yl)-2-(((S)-1-methylpyrrolidin-2-yl)methoxy)-5,6,7,8-tetrahydropyrido[3,4-d]pyrimidin-4-amine] | ++ (20 < x ≤ 40) | + (0 < x ≤ 20) | ++ (10 < x ≤ 100) | – | – | – |
| Cc1cccc2cccc(N3CCc4c(nc(OC[C@@H]5CCCN5C)nc4N4CCC(N(C)C(=O)C5CN5)CC4)C3)c12 (stereo partly drawn) [Example 42, N-methyl-(1-(7-(8-methylnaphthalen-1-yl)-2-(((S)-1-methylpyrrolidin-2-yl)methoxy)-5,6,7,8-tetrahydropyrido[3,4-d]pyrimidin-4-yl)piperidin-4-yl)aziridine-2-carboxamide] | + (0 < x ≤ 20) | + (0 < x ≤ 20) | + (0 < x ≤ 10) | – | – | – |
| Cc1cccc2cccc(N3CCc4c(nc(OC[C@@H]5CCCN5C)nc4N(C)CCCN=C=NCc4ccc(Cl)cc4)C3)c12 [Example 32, N-(3-((((4-chlorobenzyl)imino)methylene)amino)propyl)-N-methyl-7-(8-methylnaphthalen-1-yl)-2-(((S)-1-methylpyrrolidin-2-yl)methoxy)-5,6,7,8-tetrahydropyrido[3,4-d]pyrimidin-4-amine] | + (0 < x ≤ 20) | + (0 < x ≤ 20) | + (0 < x ≤ 10) | – | – | – |
| COc1ccc(CN=C=NCCCN(C)c2nc(=O)n(-c3c(C)ccnc3C(C)C)c3nc(-c4ccccc4F)c(F)cc23)cc1 [Example 58] | + (0 < x ≤ 20) | + (0 < x ≤ 20) | ++ (10 < x ≤ 100) | – | – | – |
| CC(=O)N1CC1C(=O)N1CCN(c2ncnc3c(F)c(-c4ccccc4F)c(Cl)cc23)CC1 (stereo not drawn) [Example 17, 1-(2-(4-(6-chloro-8-fluoro-7-(2-fluorophenyl)quinazolin-4-yl)piperazine-1-carbonyl)aziridin-1-yl)ethan-1-one] | + (0 < x ≤ 20) | + (0 < x ≤ 20) | + (0 < x ≤ 10) | – | – | – |
